# Measured values taken from patent US4127722A, “Benzhydrylsulphinyl derivatives” (Laboratoire L. Lafon, priority 1975, dated 1978).
# “Also recorded” adds a separate entry of the source. Where a name gives a salt, the structure may show the parent alone.
# Legend:
# [1] = Toxicity, gastric administration, mice; conditions: mouse, in vivo, po
# [2] = Toxicity, intraperitoneal administration, mice; assay type: in vivo; conditions: mouse, in vivo, ip, intraperitoneal administration
# mice [3] = test: Toxicity, intraperitoneal administration, mice; assay type: in vivo; conditions: i.p., 256 mg/kg, 512 mg/kg and 1,024 mg/kg
# [4] = test system: stereotype behaviour caused by apomorphine; test: Interaction with apomorphine; assay type: in vivo, rats
# Description: Batches of 6 rats are given CRL 40,028 30 minutes after the subcutaneous injection of 0.5 mg/kg of apomorphine.
# spontaneous motility = test: Spontaneous motility (actimetry); assay type: in vivo, mice; conditions: for % relative to the control animals / % variation: rays crossed
# Description: CRL 40,028 increases the motor activity of the animals from a dose of 16 mg/kg onwards. As this effect is representative of the activity of CRL 40,028, attempts have been made to obtain its kinetics more precisely. […]
# residual motility = test: Residual motility; assay type: in vivo, mice; conditions: animals becoming accustomed to the chamber
# [5] = test system: motor activity after anoxia; test: Motor recovery after hypoxia aggression; assay type: in vivo, mice
# [6] = test system: stereotype behaviour induced by amphetamine; test: Interaction with amphetamine; assay type: in vivo, rats
# Description: Amphetamine (2 mg/kg, given intraperitoneally) is injected 30 minutes after the administration of CRL 40,028 (6 rats/dose).
# [7] = test system: hypothermia and ptosis produced by reserpine; test: Interaction with reserpine; assay type: in vivo, mice
# Description: Batches of 6 mice are given an intraperitoneal injection of reserpine (2.5 mg/kg) 4 hours before the administration of CRL 40,028.
# [8] = test system: hypothermia, trembling and peripheral cholinergic symptoms brought about by oxotremorine; test: Interaction with oxotremorine; assay type: in vivo, mice
# Description: Mice (6 per dose) are given an intraperitoneal injection of 0.5 mg/kg of oxotremorine 30 minutes after the administration of CRL 40,028.
# passes which entail pain = test: Four plate test; assay type: in vivo, mice; conditions: mice
# Description: (§1) The test is carried out on batches of 20 mice, 30 minutes after the administration of CRL 40,028.
# [9] = test system: convulsive effects of the electric shock; test: Electric shock; assay type: in vivo, mice
# Description: as §1
# [10] = General behaviour / psychopharmacological spectrum (species not stated); assay type: in vivo
# mice [11] = test: General behaviour, mice; assay type: in vivo; conditions: at all the doses studied (toxicity test)
# central nervous system = test: Pharmacological tests: action on the central nervous system, overall profile; assay type: in vivo
# Description: The results of the pharmacological tests which were carried out have been summarised below.
# groups of mice = test: Group toxicity; conditions: in words, comparison with amphetamine-type compounds
# carrageenin oedema = test: Carrageenin oedema; assay type: in vivo
smiles,measurement,setting,value
"O=C(C[S+]([O-])C(c1ccccc1)c1ccccc1)NO (stereo not shown) [CRL 40,028, benzhydrylsulphinylacetohydroxamic acid]",LD50,[1],1950 mg/kg
same,LD50,[2],≤ 2050 mg/kg
same,mortality,mice [3],no mortality was observed
same,Boosting action on apomorphine,"[4]; Table IV, graded symbols",0
same,boosting of the effect of apomorphine,"[4]; in words, comparison with amphetamine / caffeine",absence of boosting of the effect of apomorphine
same,activity on the stereotype behaviour caused by apomorphine,"[4]; rats, apomorphine 0.5 mg/kg s.c.",does not exert any activity
same,minimal effective dose,"spontaneous motility; Mus musculus, spontaneous motility, read-out: dose from which motor activity is increased",≥ 16 mg/kg
same,time in which hypermotility appears,"spontaneous motility; mice, 64 mg/kg",less than 30 minutes
same,time in which hypermotility disappears,"spontaneous motility; mice, 64 mg/kg",4 h
same,time of maximum hypermotility,"spontaneous motility; mice, 64 mg/kg",one
same,Number of rays crossed in 30 minutes,"spontaneous motility; mice, 64 mg/kg, - 30 mins",311
same,Number of rays crossed in 30 minutes,"spontaneous motility; mice, 64 mg/kg, - 1 hr",424
same,Number of rays crossed in 30 minutes,"spontaneous motility; mice, 64 mg/kg, - 2 hrs",376
same,Number of rays crossed in 30 minutes,"spontaneous motility; mice, 64 mg/kg, - 4 hrs",234
same,% relative to the control animals,"spontaneous motility; mice, 64 mg/kg, - 30 mins",155%
same,% variation,"spontaneous motility; mice, 64 mg/kg, - 30 mins",+55%
same,% relative to the control animals,"spontaneous motility; mice, 64 mg/kg, - 1 hr",212%
same,% variation,"spontaneous motility; mice, 64 mg/kg, - 1 hr",+112%
same,% relative to the control animals,"spontaneous motility; mice, 64 mg/kg, - 2 hrs",188%
same,% variation,"spontaneous motility; mice, 64 mg/kg, - 2 hrs",+88%
same,% relative to the control animals,"spontaneous motility; mice, 64 mg/kg, - 4 hrs",117%
same,% variation,"spontaneous motility; mice, 64 mg/kg, - 4 hrs",+17%
same,effect on residual motility,residual motility,stimulating effect
same,aggravation of the effects of hypoxia,[5]; comparison with caffeine,absence of an aggravation
same,motor activity after anoxia,"[5]; mice, 512, 128 and 32 mg/kg, vs control animals",markedly greater motor activity than that of the control animals
same,Boosting action on amphetamine,"[6]; Table IV, graded symbols",0
same,boosting of the effect of amphetamine,[6]; in words,does not boost the action of amphetamine; also recorded: absence of boosting
same,effect on stereotype behaviour induced by amphetamine,"[6]; rats, amphetamine 2 mg/kg i.p.",does not produce an overall change in the stereotype behaviour induced by amphetamine
same,Anti-reserpine action (ptosis),"[7]; Table IV, graded symbols",0
same,anti-reserpine effect,[7]; in words,absence of a marked antagonism to reserpine
same,hypothermia due to reserpine,[7]; in words,absence of a marked antagonism to hypothermia brought about by reserpine
same,effect on hypothermic effect of reserpine,"[7]; mice, 256 and 64 mg/kg, reserpine 2.5 mg/kg i.p.",partially counteracts the hypothermic effect of reserpine
same,effect on ptosis produced by reserpine,"[7]; mice, reserpine 2.5 mg/kg i.p.",does not resolve the palpebral ptosis
same,Anti-oxotremorine action (peripheral),"[8]; Table IV, graded symbols",0
same,effect on hypothermic effect of oxotremorine,"[8]; mice, 64 mg/kg",not
same,effect on hypothermic effect of oxotremorine,"[8]; mice, 256, 16 and 4 mg/kg",moderately opposes the hypothermic effect of oxotremorine
same,effect on trembling brought about by oxotremorine,"[8]; mice, at all the doses",moderately reduces
same,"effect on peripheral cholinergic symptoms (salivation, lachrymation, defaecation)","[8]; mice, oxotremorine 0.5 mg/kg i.p.","does not alter the increase in salivation, lachrymation and defaecation"
same,number of passes which entail pain,passes which entail pain; 4.1 mg/kg,a modest decrease in the number of such passes
same,number of passes which entail pain,passes which entail pain; 256 and 64 mg/kg,an increase in the number of passes which entail pain
same,decrease in motility,passes which entail pain; at no dose,"At no dose does CRL 40,028 bring about a major decrease in motility"
same,aggravation of the effects of electric shock,[9]; comparison with caffeine,absence of an aggravation
same,antagonism against convulsive effects of the electric shock,"[9]; mice, only at 256 mg/kg",a very moderate antagonism
same,stereotypies,"[10]; Table IV, graded symbols",0
same,stimulant properties (overall),[10]; animal psychopharmacology,"stimulant properties, namely causing excitation and hyper-reactivity, and hypermotility"
same,stereotypies,"[10]; in words, comparison with amphetamine-type compounds",absence of stereotypies
same,excitation of the animal,mice [11],excitation of the animal was observed
same,psychostimulant profile,central nervous system; comparison with amphetamine and caffeine,a psychostimulant which comes closer to caffeine
same,toxicity in the groups of mice,groups of mice,virtual absence of specific (?) toxicity
same,solubility,Solubility in water,< 1000 µg/mL
"[O-][S+](CCC1=NCCN1)C(c1ccccc1)c1ccccc1 (stereo not shown) [CRL 40,066, 2-(2-Benzhydrylsulphinyl-ether)-imidazoline hydrochloride]",anti-oedema effect,carrageenin oedema,an anti-oedema effect
same,action on the central nervous system,central nervous system; in words,an effect on the central nervous system
